The text below walks through data of ChEMBL document CHEMBL3244065, “Neuroleptics related to butaclamol. An investigation of the effects of chlorine substituents on the aromatic rings” (J Med Chem, 1978).

The structures appear in SMILES notation. Bounds are passed on as bounds.

The subject of data set [1] is Rattus norvegicus. Description: Neuroleptic activity in ip dosed Sprague-Dawley rat assessed as inhibition of amphetamine-induced stereotyped behaviour administered 15 mins after d-amphetamine challenge. It counts as functional. As to conditions: 0.25 h, read-out: MED.
Data set [2] deals with Rattus norvegicus. The experiment in a line: Neuroleptic activity in ip dosed Sprague-Dawley rat assessed as conditioned active avoidance failure after 30 mins. Type of data set: functional. Particulars: 0.5 h.
Data set [3] relates to Rattus norvegicus. Description: Neuroleptic activity in ip dosed Sprague-Dawley rat assessed as dose required to decrease the continuous (Sidman) lever-pressing response to <50%. It counts as functional.
Data set [4] concerns Rattus norvegicus. Description: Neuroleptic activity in ip dosed Sprague-Dawley rat assessed as protection against epinephrine-induced mortality administered 1 hr prior to epinephrine injection. It counts as functional.
The test system of data set [5] is Rattus norvegicus. Description: Toxicity in ip dosed Sprague-Dawley rat assessed as induction of maximum catalepsy. It counts as organism-based. As to conditions: in vivo.

Consider `CC(C)[C@@]1(O)CCN2C[C@@H]3c4ccccc4CCc4c(Cl)ccc(c43)[C@H]2C1.Cl`, for which the minimal effective dose in the data set with Rattus norvegicus [1] amounted to 10 mg/kg. In addition, the median effective dose (ED50) with Rattus norvegicus [2] is 9 mg/kg; in the data set with Rattus norvegicus [4] it was 50 mg/kg. Also, in the data set with Rattus norvegicus [3], the Activity was found to be 2.5 mg/kg. In addition, the MED in the data set on Rattus norvegicus [5] stood at 50 mg/kg.

Turning to `CC(C)[C@@]1(O)CCN2C[C@@H]3c4ccccc4CCc4cccc(c43)[C@H]2C1` [DEXCLAMOL], the minimal effective dose in the data set on Rattus norvegicus [1] came out at 1.25 mg/kg. The 50% effective dose (ED50) is 0.64 mg/kg with Rattus norvegicus [2] and 15 mg/kg with Rattus norvegicus [4]. Further, the Activity with Rattus norvegicus [3] worked out at 0.5 mg/kg. The MED with Rattus norvegicus [5] came to 12.5 mg/kg.

With `OCCN1CCN(C2Cc3cc(Cl)ccc3Sc3ccccc32)CC1` (stereo not drawn), the minimal effective dose in the data set on Rattus norvegicus [1] turned out to be 20 mg/kg. Also, the 50% effective dose (ED50) in the data set with Rattus norvegicus [2] is 4.5 mg/kg; with Rattus norvegicus [4] it was 0.88 mg/kg. The Activity with Rattus norvegicus [3] was found to be 2.5 mg/kg. In addition, in the data set with Rattus norvegicus [5], the MED was greater than 50 mg/kg.

With `CC(C)[C@@]1(O)CCN2C[C@@H]3c4cccc(Cl)c4CCc4cccc(c43)[C@H]2C1.Cl`, the minimal effective dose in the data set on Rattus norvegicus [1] is 20 mg/kg. Besides, the ED50 is greater than 20 mg/kg in the data set with Rattus norvegicus [2] and 100 mg/kg in the data set with Rattus norvegicus [4]. The Activity in the data set with Rattus norvegicus [3] stood at 20 mg/kg. Also, in the data set with Rattus norvegicus [5], the MED is 100 mg/kg.

For `CC(C)[C@@]1(O)CCN2C[C@@H]3c4ccc(Cl)cc4CCc4cccc(c43)[C@H]2C1.Cl`, in the data set with Rattus norvegicus [1], the minimal effective dose is 1.25 mg/kg. Moreover, the figures for the 50% effective dose (ED50) in the data set with Rattus norvegicus [2] and in the data set with Rattus norvegicus [4] were 1.1 mg/kg and 13.9 mg/kg, respectively. For the same compound, the Activity in the data set on Rattus norvegicus [3] was determined as 0.62 mg/kg. In addition, the MED with Rattus norvegicus [5] is 12.5 mg/kg.

As to `CN1CCN(C2=Nc3cc(Cl)ccc3Nc3ccccc32)CC1` [CLOZAPINE], in the data set with Rattus norvegicus [1], the minimal effective dose was 50 mg/kg. For the same compound, the ED50 stood at 6.8 mg/kg in the data set on Rattus norvegicus [2] and 2.4 mg/kg in the data set on Rattus norvegicus [4]. Moreover, the Activity in the data set on Rattus norvegicus [3] turned out to be 7.5 mg/kg. In addition, the MED with Rattus norvegicus [5] is greater than 100 mg/kg.

In the case of `CC(C)[C@@]1(O)CCN2C[C@@H]3c4cc(Cl)ccc4CCc4c(Cl)ccc(c43)[C@H]2C1.Cl`, the minimal effective dose with Rattus norvegicus [1] is greater than 20 mg/kg. The Activity with Rattus norvegicus [3] is greater than 5 mg/kg. Also, the ED50 with Rattus norvegicus [4] is greater than 60 mg/kg.
